From PMC8047011, “Enantiomers of 2-methylglutamate and 2-methylglutamine selectively impact mouse brain metabolism and behavior” (Scientific Reports, 2021)
Like-named read-outs stand apart in the source and are kept apart here.

Columns and labels:
[1] = target: T1, human glutaminase GLS1 (Homo sapiens, UniProt O94925); experiment: Catalysis of 2MeGln hydrolysis by GLS1 glutaminase; type: biochemical
T1 sequence (O94925 55-669): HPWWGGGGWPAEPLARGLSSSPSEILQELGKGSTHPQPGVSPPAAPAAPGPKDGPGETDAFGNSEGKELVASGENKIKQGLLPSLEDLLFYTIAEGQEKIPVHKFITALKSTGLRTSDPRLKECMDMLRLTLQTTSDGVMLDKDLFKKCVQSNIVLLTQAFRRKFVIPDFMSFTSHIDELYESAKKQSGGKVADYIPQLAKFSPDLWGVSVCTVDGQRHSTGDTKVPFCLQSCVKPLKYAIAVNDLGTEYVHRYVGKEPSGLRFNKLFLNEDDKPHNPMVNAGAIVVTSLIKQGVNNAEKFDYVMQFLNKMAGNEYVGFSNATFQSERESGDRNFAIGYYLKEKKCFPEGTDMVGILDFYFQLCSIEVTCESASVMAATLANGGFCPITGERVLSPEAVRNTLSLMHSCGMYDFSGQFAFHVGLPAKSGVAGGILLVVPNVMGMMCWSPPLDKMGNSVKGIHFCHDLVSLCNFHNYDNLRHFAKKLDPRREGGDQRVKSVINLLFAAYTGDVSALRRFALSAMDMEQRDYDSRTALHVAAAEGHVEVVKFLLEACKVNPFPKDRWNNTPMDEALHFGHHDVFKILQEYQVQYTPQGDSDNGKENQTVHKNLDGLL
Description: The procedure was adapted from an existing protocol. To a reaction mixture in a 1.5 mL microcentrifuge tube containing 10 mM rac-2MeGln or L-Gln-^13C2 in 100 mM phosphate pH 7.4 buffer made in 20% atom ^18O water, recombinant GLS1 (final concentration: 5 ng/mL) was added. The tubes were incubated in a preheated thermomixer at 37 °C and periodically shaken at 600 rpm (30 s on, 30 s off). 5 μL aliquots were collected in triplicate every 5 min and immediately diluted with 195 μL of cold 60% ACN containing 10 μM Glu-d5 and Gln-d5 as internal standards in a 96 well plate. After collecting all samples, the plate was shaken at 1000 rpm for 5 min at room temperature, and then stored at − 80 °C. Before analysis the plate was thawed and 10 μL aliquots of the extracted reaction mixtures were diluted with 190 μL of 90% acetonitrile.
The quantification of the newly formed 2MeGlu in the presence of the preexisting trace amounts was performed in the following way. Peak area ratio of Glu-^13C2 to Glu-^13C2^18O was calculated in all samples containing Glu-^13C2. The mean ratio value was then applied to calculate the hypothetical peak area of the newly formed 2MeGlu based on the directly measured 2MeGlu-^18O peak area. The ratio of the newly formed 2MeGlu peak area and the total 2MeGlu peak area was applied to calculate the concentration of the newly formed 2MeGlu from the total 2MeGlu concentration determined directly using the calibration curve.

[2] = target: T2, GluN2A (Homo sapiens, UniProt Q12879); experiment: FLIPR functional receptor assay, GluN2A; type: cell-based
T2 construct: host or cells: HEK 293
T2 sequence (Q12879 23-1464, other chains not shown): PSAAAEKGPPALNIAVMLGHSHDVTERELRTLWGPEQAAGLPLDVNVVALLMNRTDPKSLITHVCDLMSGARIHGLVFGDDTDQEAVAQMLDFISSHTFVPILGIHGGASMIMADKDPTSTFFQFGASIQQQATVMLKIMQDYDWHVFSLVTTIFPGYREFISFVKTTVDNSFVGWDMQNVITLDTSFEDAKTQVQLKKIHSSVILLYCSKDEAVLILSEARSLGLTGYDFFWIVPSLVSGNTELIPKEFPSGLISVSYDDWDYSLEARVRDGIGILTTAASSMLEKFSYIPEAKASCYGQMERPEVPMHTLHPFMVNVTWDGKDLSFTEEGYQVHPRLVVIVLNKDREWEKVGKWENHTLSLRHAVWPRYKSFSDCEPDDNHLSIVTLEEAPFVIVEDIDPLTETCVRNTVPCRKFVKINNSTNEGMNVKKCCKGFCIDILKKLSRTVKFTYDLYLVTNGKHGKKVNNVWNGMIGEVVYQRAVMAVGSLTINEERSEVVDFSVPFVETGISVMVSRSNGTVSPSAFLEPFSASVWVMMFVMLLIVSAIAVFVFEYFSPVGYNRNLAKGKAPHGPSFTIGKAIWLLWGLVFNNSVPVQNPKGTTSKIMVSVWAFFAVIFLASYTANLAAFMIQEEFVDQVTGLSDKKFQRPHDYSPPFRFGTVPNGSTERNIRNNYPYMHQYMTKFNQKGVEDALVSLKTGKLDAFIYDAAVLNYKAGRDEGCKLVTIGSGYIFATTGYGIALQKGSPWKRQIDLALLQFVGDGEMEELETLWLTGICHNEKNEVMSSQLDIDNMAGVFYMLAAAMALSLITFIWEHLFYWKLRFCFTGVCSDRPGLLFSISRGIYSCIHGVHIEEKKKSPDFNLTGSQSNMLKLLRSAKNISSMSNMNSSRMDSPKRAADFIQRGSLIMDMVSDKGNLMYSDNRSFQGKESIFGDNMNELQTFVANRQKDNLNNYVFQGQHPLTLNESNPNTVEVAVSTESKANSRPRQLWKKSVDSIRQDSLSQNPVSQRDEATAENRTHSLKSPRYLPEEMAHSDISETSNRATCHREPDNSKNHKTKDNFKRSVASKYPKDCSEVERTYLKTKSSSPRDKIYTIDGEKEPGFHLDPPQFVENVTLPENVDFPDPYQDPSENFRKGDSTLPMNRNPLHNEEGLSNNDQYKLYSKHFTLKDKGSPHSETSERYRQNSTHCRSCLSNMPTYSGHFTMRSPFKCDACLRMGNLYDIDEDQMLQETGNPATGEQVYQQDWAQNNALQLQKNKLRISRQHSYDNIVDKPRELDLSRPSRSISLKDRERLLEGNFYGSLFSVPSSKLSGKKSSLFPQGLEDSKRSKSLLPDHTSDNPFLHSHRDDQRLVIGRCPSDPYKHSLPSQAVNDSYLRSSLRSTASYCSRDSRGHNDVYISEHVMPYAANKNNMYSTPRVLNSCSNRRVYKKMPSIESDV
Description: (§1) Receptor functional & binding assays
(§2) Functional assays of all GABAA, NMDA (GluN2A–GluN2D) and AMPA (GluA2) receptor subunits were performed by SB Drug Discovery as a part of their CNS discovery panel using FLIPR technology. Briefly, receptor-expressing HEK 293 cell lines were incubated in a red membrane potential dye in HEPES:HBSS pH 7.4 buffer and the fluorescence (λex: 488, λex: 510–570) was monitored over time as the test compounds and/or reference compounds were added to the solution. In agonist assay, only test compounds were added. In positive allosteric modulator assay, cells were preincubated with test compounds and then low concentration (approximately EC20) of an appropriate agonist was added. In antagonist assay, cells were preincubated with test compounds and then high concentration (approximately EC80) of an appropriate agonist was added. For GABAA assays, GABA was used as the agonist, picrotoxin was used as the reference antagonist and allopregnanolone was used as the reference positive allosteric modulator (PAM). For NMDA assays, a mixture of glutamate, glycine and CaCl2 was used as the agonist, MK801 was the reference antagonist and pregnenolone sulfate or GNE 9278 were used as reference PAMs. […] All compounds were tested at 7 concentration points in triplicate and EC50/IC50 was determined where applicable. […]

[3] = target: T3, mGluR5 (Homo sapiens, UniProt P41594); experiment: mGluR5 radioligand binding assay; settings: triplicate
T3 construct: purchased SB Drug Discovery (CNS discovery panel, FLIPR); Eurofins Discovery (Cerep)
T3 sequence (P41594 21-1212): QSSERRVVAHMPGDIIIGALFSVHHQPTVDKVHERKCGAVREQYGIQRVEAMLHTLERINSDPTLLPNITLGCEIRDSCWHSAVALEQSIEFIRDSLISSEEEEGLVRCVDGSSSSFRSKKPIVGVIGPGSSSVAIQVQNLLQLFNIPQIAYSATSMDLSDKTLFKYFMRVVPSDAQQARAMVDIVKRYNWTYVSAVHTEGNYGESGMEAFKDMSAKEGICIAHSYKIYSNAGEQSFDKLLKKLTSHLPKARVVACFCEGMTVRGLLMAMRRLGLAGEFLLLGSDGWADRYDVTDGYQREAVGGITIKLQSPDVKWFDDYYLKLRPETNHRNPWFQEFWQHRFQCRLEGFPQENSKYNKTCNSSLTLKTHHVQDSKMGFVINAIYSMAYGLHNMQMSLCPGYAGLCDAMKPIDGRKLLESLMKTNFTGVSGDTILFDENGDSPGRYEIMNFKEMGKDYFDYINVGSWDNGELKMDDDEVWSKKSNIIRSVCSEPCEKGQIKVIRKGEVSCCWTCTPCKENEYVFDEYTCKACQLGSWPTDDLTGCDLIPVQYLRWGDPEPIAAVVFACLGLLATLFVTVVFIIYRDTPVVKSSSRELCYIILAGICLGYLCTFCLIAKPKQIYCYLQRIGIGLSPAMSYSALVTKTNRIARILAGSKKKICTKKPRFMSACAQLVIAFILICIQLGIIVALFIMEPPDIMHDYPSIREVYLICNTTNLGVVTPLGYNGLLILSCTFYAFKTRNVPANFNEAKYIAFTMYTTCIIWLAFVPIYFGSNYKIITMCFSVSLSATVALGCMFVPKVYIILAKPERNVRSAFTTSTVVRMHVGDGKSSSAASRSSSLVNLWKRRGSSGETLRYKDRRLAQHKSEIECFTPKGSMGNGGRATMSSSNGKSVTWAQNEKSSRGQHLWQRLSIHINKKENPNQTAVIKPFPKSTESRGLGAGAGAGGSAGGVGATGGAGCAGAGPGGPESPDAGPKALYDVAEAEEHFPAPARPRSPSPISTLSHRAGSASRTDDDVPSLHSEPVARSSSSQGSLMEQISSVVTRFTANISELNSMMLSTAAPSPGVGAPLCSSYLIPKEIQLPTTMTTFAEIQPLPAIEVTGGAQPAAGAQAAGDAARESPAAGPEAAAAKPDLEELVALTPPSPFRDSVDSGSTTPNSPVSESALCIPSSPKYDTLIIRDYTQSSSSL
Description: (§3) mGluR1, mGluR2, mGluR5 and GABAB binding assays were performed by Eurofins Discovery. […]
(§4) mGluR5 and GABAB binding assays were performed using recombinant CHO-K1 cells and
(§5) [3H]CGP-54626 and [3H]quisqalic acid, respectively. All compounds were tested at a single
(§6) concentration of 100 uM in triplicate. […]

[4] = tested on: NMDA nonspecific; experiment: Nonspecific NMDA binding assay; settings: 100 μM, triplicate; rat
Description: Nonspecific AMPA, kainate and NMDA binding assays were performed by Eurofins Discovery
(Cerep) using rat cerebral cortex membranes and radiolabeled [3H]AMPA, [3H]kainic acid and
[3H]CGP 39653, respectively. […]

[5] = target: T4, GABAA α2β2γ2 (Homo sapiens, UniProt P47869+P47870); experiment: FLIPR functional receptor assay, GABAA α2β2γ2; type: cell-based; settings: agonist mode; top test concentration 1 mM
T4 construct: host or cells: HEK 293
Description: as §1, §2

[6] = target: T5, GABAA α3β1γ2 (Homo sapiens, UniProt P18505+P34903); experiment: FLIPR functional receptor assay, GABAA α3β1γ2; type: cell-based; settings: agonist mode; top test concentration 1 mM
T5 construct: host or cells: HEK 293
T5 sequence (P34903 29-492): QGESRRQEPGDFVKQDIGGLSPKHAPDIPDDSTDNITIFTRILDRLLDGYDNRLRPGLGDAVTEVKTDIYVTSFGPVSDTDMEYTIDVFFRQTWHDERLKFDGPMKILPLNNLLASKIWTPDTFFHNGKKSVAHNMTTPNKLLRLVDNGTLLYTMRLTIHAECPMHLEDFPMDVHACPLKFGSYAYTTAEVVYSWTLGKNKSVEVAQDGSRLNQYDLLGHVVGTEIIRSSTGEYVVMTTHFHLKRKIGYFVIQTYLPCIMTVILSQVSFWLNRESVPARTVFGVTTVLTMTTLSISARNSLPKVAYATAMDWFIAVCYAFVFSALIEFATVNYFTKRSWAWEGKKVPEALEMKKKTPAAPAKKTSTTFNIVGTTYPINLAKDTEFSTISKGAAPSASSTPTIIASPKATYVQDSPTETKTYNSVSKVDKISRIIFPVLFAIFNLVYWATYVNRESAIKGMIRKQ
T5 sequence (P18505 26-474): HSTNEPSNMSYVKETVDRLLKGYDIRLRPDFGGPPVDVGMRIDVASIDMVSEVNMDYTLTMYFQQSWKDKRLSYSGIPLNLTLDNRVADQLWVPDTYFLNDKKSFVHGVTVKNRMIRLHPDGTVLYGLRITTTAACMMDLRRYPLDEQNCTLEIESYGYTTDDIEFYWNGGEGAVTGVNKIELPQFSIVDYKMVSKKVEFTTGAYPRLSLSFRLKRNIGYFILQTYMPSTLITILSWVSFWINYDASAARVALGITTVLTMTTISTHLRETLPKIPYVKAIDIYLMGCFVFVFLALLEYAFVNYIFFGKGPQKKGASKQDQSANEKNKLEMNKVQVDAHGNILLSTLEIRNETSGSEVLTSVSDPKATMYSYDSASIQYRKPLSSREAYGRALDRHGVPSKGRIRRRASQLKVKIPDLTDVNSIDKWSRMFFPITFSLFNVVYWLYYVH
T5 sequence (P18507 40-475 partner): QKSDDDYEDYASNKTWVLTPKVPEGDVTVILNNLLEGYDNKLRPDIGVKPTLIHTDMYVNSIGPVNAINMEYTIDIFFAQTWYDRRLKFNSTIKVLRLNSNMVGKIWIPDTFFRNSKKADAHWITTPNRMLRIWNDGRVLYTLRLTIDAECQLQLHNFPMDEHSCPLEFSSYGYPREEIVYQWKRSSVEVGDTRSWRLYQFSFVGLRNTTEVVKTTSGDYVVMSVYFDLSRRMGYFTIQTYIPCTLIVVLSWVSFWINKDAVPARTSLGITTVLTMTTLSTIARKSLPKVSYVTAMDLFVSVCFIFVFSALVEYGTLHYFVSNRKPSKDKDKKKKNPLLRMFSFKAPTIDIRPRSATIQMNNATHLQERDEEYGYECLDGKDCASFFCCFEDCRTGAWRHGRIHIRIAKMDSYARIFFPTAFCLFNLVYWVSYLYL
Description: as §1, §2

[7] = target: T6, GABAA α4β1γ2 (Homo sapiens, UniProt P18505+P48169); experiment: FLIPR functional receptor assay, GABAA α4β1γ2; type: cell-based; settings: agonist mode; top test concentration 1 mM
T6 construct: host or cells: HEK 293
T6 sequence (P48169 36-554): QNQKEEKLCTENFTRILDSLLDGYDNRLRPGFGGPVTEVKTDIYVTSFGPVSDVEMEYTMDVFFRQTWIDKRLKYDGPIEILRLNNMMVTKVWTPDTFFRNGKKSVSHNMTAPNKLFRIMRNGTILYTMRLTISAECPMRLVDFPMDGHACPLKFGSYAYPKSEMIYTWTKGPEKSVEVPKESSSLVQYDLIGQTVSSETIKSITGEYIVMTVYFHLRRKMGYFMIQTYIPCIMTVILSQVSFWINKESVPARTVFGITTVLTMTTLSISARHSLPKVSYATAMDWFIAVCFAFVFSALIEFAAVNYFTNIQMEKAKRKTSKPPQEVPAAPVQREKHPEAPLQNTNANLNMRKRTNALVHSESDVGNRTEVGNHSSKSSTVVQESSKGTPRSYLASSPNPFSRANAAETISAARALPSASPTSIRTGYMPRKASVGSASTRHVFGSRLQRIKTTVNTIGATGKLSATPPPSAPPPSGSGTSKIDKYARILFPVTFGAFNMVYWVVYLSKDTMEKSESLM
T6 sequence (P18505 26-474): as the sequence (P18505 26-474) above
T6 sequence (P18507 40-475 partner): as the sequence (P18507 40-475 partner) above
Description: as §1, §2

[8] = target: T7, GABAB (B1/B2) (Homo sapiens, UniProt Q9UBS5); experiment: GABAB binding assay (B1/B2; nonsel); settings: triplicate, rat, read-out: % of radioligand binding inhibition, GABAB nonsel
T7 construct: purchased SB Drug Discovery (CNS discovery panel, FLIPR); Eurofins Discovery (Cerep)
Description: as §3, §4, §5, §6

[9] = target: T8, GABAB (B1a/B2) (Homo sapiens, UniProt Q9UBS5); experiment: GABAB (B1a/B2) binding assay; settings: triplicate, read-out: % of radioligand binding inhibition, GABAB (B1a/B2)
T8 construct: purchased SB Drug Discovery (CNS discovery panel, FLIPR); Eurofins Discovery (Cerep)
Description: as §3, §4, §5, §6

[10] = read-out: % of radioligand binding inhibition, mGluR5 (first line of Table S4)
[11] = read-out: % of radioligand binding inhibition, mGluR5 (second line of Table S4)

`CC(N)(CCC(N)=O)C(=O)O` (racemic) [rac-2MeGln, rac-2-methylglutamine] was tested, and the “Substrate for GLS1” value [1] was “at least one enantiomer of 2MeGln is a substrate for human GLS1, albeit relatively slow”, the “Apparent GLS1 reaction rate, fold lower compared to Gln” value ([1]; 10 mM substrate) was “approximately 35 fold” and the “Apparent reaction rate of GLS1 hydrolysis” value ([1]; 10 mM substrate, 5 ng/mL enzyme, phosphate pH 7.4) was 1.9 µM/min.

For `C[C@@](N)(CCC(=O)O)C(=O)O` [(R)-2MeGlu, (R)-2-methylglutamic acid], the “Activity against GluN2A (in words)” value [2] was “weak antagonist behavior”, the IC50 ([2]; antagonist mode, top test concentration 100 μM) was 69 µM and the inhibition at 100 µM [3, 10] was -20%. The inhibition at 100 µM [3, 11] was -2%, the “% of radioligand binding inhibition, NMDA nonspec” value [4] was 8% and the EC50 [5] was 660 µM. It also gave an EC50 [6] of 742 µM, an EC50 [7] of 870 µM and an inhibition at 100 µM [8] of 5%. It also gave an inhibition at 100 µM [9] of 18%.

With `C[C@](N)(CCC(=O)O)C(=O)O` [(S)-2MeGlu, (S)-2-methylglutamic acid] the inhibition at 100 µM [3, 10] was 11%, the inhibition at 100 µM [3, 11] was -4% and the “% of radioligand binding inhibition, NMDA nonspec” value [4] was 3%. The EC50 [5] was 530 µM, the EC50 [6] was 782 µM and the EC50 [7] was 704 µM. The inhibition at 100 µM [8] was 5% and the inhibition at 100 µM [9] was 6%.
